Experimental data reported in ChEMBL document CHEMBL1128045, “Antifungal lipopeptides: Structure-activity relationships of 3-hydroxyglutamine-modified pneumocandin B0 derivatives” (Bioorg Med Chem Lett, 1995).
In brackets after ≈: the same amount, converted by molar mass. Numbered stars: 1 amine (or outer) side, 2 acyl side, 3 side chain; on linkers, the order of the positions; unused ones are H or OH. Bridge positions count the residues as written; N and C are the ends. Square brackets hold non-standard residues; d marks the D form. Peptide text beside a SMILES is read from it. * marks the point of attachment. Orn(4R-OH,5R-OH) = O=C([C@H](C[C@@H](O)[C@@H](O)N[*:3])N[*:1])[*:2]; hTyr(3S-OH,4S-OH) = N[C@H](C(=O)O)[C@H](O)[C@@H](O)c1ccc(O)cc1; X16 = COC(=O)CCCCCNC(=O)C[C@@H](O)[C@H](N[*:1])C(=O)[*:2]; Orn(4R-OH) = O=C([C@H](C[C@@H](O)CN[*:3])N[*:1])[*:2]; X15 = NCCCCCCNC(=O)C[C@@H](O)[C@H](N[*:1])C(=O)[*:2]; X10 = N#CCN(CC#N)CC[C@@H](O)[C@H](N[*:1])C(=O)[*:2]; X6 = C[N+](C)(C)CC[C@@H](O)[C@H](N[*:1])C(=O)[*:2]; hTyr(3R-OH) = N[C@H](C(=O)O)[C@H](O)Cc1ccc(O)cc1; X5 = NC(N)=NCC[C@@H](O)[C@H](N[*:1])C(=O)[*:2]; X7 = CN(C)CC[C@@H](O)[C@H](N[*:1])C(=O)[*:2]; Gln(3R-OH) = NC(=O)C[C@@H](O)[C@H](N)C(=O)O; X17 = O=C([C@@H](N[*:1])[C@H](O)CCO)[*:2]; X9 = N#CC[C@@H](O)[C@H](N[*:1])C(=O)[*:2]; Orn(3R-OH) = NCC[C@@H](O)[C@H](N)C(=O)O; Pro(3S-OH) = O=C(O)[C@H]1NCC[C@@H]1O; Hyp = O=C(O)[C@@H]1C[C@@H](O)CN1; X1 = CCC(C)CC(C)CCCCCCCCC(=O)*

Columns and labels:
Candida albicans = assay: In vitro Fungicidal activity (MFC) against Candida albicans (MY 1055).; type: functional
Beta-1,3-glucan synthase = Beta-1,3-glucan synthase (Candida albicans, UniProt O13428); assay: Tested for inhibition of Beta-1,3-glucan synthase using a crude membrane of Candida albicans (MY 1208).
Chain of Beta-1,3-glucan synthase (O13428 whole entry): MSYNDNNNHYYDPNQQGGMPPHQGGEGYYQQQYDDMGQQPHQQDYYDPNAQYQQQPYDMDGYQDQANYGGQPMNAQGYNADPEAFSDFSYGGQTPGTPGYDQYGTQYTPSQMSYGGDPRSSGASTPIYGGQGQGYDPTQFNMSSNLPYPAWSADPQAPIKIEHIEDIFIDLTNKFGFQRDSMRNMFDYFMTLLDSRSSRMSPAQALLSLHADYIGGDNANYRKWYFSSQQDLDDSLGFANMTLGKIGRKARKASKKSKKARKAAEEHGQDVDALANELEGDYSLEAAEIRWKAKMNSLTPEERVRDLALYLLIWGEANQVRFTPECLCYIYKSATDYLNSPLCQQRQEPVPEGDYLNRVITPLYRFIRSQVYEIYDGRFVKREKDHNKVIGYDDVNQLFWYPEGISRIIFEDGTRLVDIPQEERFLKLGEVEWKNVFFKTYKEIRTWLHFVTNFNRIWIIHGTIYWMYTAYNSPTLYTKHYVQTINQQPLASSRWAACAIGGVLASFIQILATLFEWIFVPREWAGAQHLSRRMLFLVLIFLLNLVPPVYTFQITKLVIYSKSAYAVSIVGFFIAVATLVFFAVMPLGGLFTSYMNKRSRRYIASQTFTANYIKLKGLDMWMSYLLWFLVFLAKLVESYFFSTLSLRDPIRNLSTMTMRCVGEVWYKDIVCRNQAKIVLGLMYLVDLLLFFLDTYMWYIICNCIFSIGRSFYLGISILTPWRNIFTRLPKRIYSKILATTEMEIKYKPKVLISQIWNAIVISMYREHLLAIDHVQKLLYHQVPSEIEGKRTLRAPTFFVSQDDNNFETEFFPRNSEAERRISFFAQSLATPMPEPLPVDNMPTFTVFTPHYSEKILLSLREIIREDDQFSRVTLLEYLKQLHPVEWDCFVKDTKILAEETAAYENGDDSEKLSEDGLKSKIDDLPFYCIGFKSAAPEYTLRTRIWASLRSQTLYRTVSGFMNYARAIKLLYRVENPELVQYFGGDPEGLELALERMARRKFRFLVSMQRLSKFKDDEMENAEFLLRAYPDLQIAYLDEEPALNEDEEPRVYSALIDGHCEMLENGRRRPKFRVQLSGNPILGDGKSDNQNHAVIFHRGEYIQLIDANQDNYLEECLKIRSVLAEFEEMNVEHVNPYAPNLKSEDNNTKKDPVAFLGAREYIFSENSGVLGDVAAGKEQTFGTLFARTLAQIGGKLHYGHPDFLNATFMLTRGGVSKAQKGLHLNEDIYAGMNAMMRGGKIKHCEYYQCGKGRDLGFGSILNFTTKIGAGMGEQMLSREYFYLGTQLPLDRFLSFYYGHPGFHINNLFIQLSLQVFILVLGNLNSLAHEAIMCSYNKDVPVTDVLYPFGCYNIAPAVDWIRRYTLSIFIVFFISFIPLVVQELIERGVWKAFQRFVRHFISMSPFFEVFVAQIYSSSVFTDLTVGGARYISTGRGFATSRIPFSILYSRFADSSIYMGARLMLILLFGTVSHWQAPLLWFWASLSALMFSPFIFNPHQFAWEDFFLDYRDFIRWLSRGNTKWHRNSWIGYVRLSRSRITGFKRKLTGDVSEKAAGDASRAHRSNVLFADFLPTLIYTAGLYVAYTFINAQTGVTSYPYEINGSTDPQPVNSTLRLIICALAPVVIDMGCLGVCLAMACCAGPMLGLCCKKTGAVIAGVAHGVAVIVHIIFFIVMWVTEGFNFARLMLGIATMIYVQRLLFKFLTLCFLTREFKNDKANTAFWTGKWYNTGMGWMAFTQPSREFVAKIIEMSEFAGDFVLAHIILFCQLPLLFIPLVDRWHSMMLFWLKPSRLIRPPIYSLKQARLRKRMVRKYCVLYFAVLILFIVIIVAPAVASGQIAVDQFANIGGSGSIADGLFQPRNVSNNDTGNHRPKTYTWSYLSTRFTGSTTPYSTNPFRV

[1] = In vivo anti-Candida activity was determined in a mouse model of disseminated candidiasis (TOKA).; type: functional
Candida parapsilosis = assay: In vitro Fungicidal activity (MFC) against Candida parapsilosis (MY 1010).; type: functional; conditions: Lodderomyces parapsilosis

Structure (SMILES) | MFC (Candida albicans) | IC50 (Beta-1,3-glucan synthase) | ED99.9 [1] | MFC (Candida parapsilosis)
CCC(C)CC(C)CCCCCCCCC(=O)N[C@H]1C[C@@H](O)CNC(=O)[C@@H]2[C@@H](O)CCN2C(=O)[C@H]([C@H](O)CC(=O)NCCCCCCN)NC(=O)[C@H]([C@H](O)Cc2ccc(O)cc2)NC(=O)[C@@H]2C[C@@H](O)CN2C(=O)[C@H]([C@@H](C)O)NC1=O (stereo partly drawn) (X1-[Orn(4R-OH)]T[Hyp][hTyr(3R-OH)][X15][Pro(3S-OH)]; lactam 1-C) | 0.5 µg/mL (≈ 0.442 µM) | 38 nM | >6 mg/kg | 
CCC(C)CC(C)CCCCCCCCC(=O)N[C@H]1C[C@@H](O)CNC(=O)[C@@H]2[C@@H](O)CCN2C(=O)[C@H]([C@H](O)CC(=O)NCCCCCC(=O)OC)NC(=O)[C@H]([C@H](O)Cc2ccc(O)cc2)NC(=O)[C@@H]2C[C@@H](O)CN2C(=O)[C@H]([C@@H](C)O)NC1=O (stereo partly drawn) (X1-[Orn(4R-OH)]T[Hyp][hTyr(3R-OH)][X16][Pro(3S-OH)]; lactam 1-C) | 4 µg/mL (≈ 3.44 µM) | 250 nM |  | > 128 µg/mL
CCC(C)CC(C)CCCCCCCCC(=O)N[C@H]1C[C@@H](O)CNC(=O)[C@@H]2[C@@H](O)CCN2C(=O)[C@H]([C@H](O)CCO)NC(=O)[C@H]([C@H](O)Cc2ccc(O)cc2)NC(=O)[C@@H]2C[C@@H](O)CN2C(=O)[C@H]([C@@H](C)O)NC1=O (stereo partly drawn) (X1-[Orn(4R-OH)]T[Hyp][hTyr(3R-OH)][X17][Pro(3S-OH)]; lactam 1-C) | 1 µg/mL (≈ 0.98 µM) | 200 nM |  | 8 µg/mL (≈ 7.84 µM)
CCC(C)CC(C)CCCCCCCCC(=O)N[C@H]1C[C@@H](O)[C@@H](O)NC(=O)[C@@H]2[C@@H](O)CCN2C(=O)[C@H]([C@H](O)CC(N)=O)NC(=O)[C@H]([C@H](O)[C@@H](O)c2ccc(O)cc2)NC(=O)[C@@H]2C[C@@H](O)CN2C(=O)[C@H]([C@@H](C)O)NC1=O (stereo partly drawn) (X1-[Orn(4R-OH,5R-OH)]T[Hyp][hTyr(3S-OH,4S-OH)][Gln(3R-OH)][Pro(3S-OH)]; lactam 1-C) | 0.25 µg/mL (≈ 0.235 µM) |  | 6 mg/kg | 1 µg/mL (≈ 0.939 µM)
CCC(C)CC(C)CCCCCCCCC(=O)N[C@H]1C[C@@H](O)[C@@H](O)NC(=O)[C@@H]2[C@@H](O)CCN2C(=O)[C@H]([C@H](O)CCN)NC(=O)[C@H]([C@H](O)[C@@H](O)c2ccc(O)cc2)NC(=O)[C@@H]2C[C@@H](O)CN2C(=O)[C@H]([C@@H](C)O)NC1=O (stereo partly drawn) (X1-[Orn(4R-OH,5R-OH)]T[Hyp][hTyr(3S-OH,4S-OH)][Orn(3R-OH)][Pro(3S-OH)]; lactam 1-C) | < 0.06 µg/mL | 10 nM | 0.375 mg/kg | 0.5 µg/mL (≈ 0.476 µM)
CCC(C)CC(C)CCCCCCCCC(=O)N[C@H]1C[C@@H](O)[C@@H](O)NC(=O)[C@@H]2[C@@H](O)CCN2C(=O)[C@H]([C@H](O)CCN=C(N)N)NC(=O)[C@H]([C@H](O)[C@@H](O)c2ccc(O)cc2)NC(=O)[C@@H]2C[C@@H](O)CN2C(=O)[C@H]([C@@H](C)O)NC1=O (stereo partly drawn) (X1-[Orn(4R-OH,5R-OH)]T[Hyp][hTyr(3S-OH,4S-OH)][X5][Pro(3S-OH)]; lactam 1-C) | < 0.06 µg/mL | 7 nM | 1.5 mg/kg | 0.5 µg/mL (≈ 0.457 µM)
CCC(C)CC(C)CCCCCCCCC(=O)N[C@H]1C[C@@H](O)[C@@H](O)NC(=O)[C@@H]2[C@@H](O)CCN2C(=O)[C@H]([C@H](O)CC[N+](C)(C)C)NC(=O)[C@H]([C@H](O)[C@@H](O)c2ccc(O)cc2)NC(=O)[C@@H]2C[C@@H](O)CN2C(=O)[C@H]([C@@H](C)O)NC1=O (stereo partly drawn) (X1-[Orn(4R-OH,5R-OH)]T[Hyp][hTyr(3S-OH,4S-OH)][X6][Pro(3S-OH)]; lactam 1-C) | 0.125 µg/mL | 9 nM | 0.375 mg/kg | 0.5 µg/mL
CCC(C)CC(C)CCCCCCCCC(=O)N[C@H]1C[C@@H](O)[C@@H](O)NC(=O)[C@@H]2[C@@H](O)CCN2C(=O)[C@H]([C@H](O)CCN(C)C)NC(=O)[C@H]([C@H](O)[C@@H](O)c2ccc(O)cc2)NC(=O)[C@@H]2C[C@@H](O)CN2C(=O)[C@H]([C@@H](C)O)NC1=O (stereo partly drawn) (X1-[Orn(4R-OH,5R-OH)]T[Hyp][hTyr(3S-OH,4S-OH)][X7][Pro(3S-OH)]; lactam 1-C) | 1 µg/mL (≈ 0.927 µM) | 5 nM | 1.5 mg/kg | 2 µg/mL (≈ 1.85 µM)
CCC(C)CC(C)CCCCCCCCC(=O)N[C@H]1C[C@@H](O)[C@@H](O)NC(=O)[C@@H]2[C@@H](O)CCN2C(=O)[C@H]([C@H](O)CC#N)NC(=O)[C@H]([C@H](O)[C@@H](O)c2ccc(O)cc2)NC(=O)[C@@H]2C[C@@H](O)CN2C(=O)[C@H]([C@@H](C)O)NC1=O (stereo partly drawn) (X1-[Orn(4R-OH,5R-OH)]T[Hyp][hTyr(3S-OH,4S-OH)][X9][Pro(3S-OH)]; lactam 1-C) | 2 µg/mL (≈ 1.91 µM) | 100 nM |  | 2 µg/mL (≈ 1.91 µM)
CCC(C)CC(C)CCCCCCCCC(=O)N[C@H]1C[C@@H](O)[C@@H](O)NC(=O)[C@@H]2[C@@H](O)CCN2C(=O)[C@H]([C@H](O)CCN(CC#N)CC#N)NC(=O)[C@H]([C@H](O)[C@@H](O)c2ccc(O)cc2)NC(=O)[C@@H]2C[C@@H](O)CN2C(=O)[C@H]([C@@H](C)O)NC1=O (stereo partly drawn) (X1-[Orn(4R-OH,5R-OH)]T[Hyp][hTyr(3S-OH,4S-OH)][X10][Pro(3S-OH)]; lactam 1-C) | 4 µg/mL (≈ 3.54 µM) | > 200 nM | >1.5 mg/kg | 8 µg/mL (≈ 7.08 µM)
